Assay results taken from the kinase profiling compilation of Christmann-Franck et al. (2016).
Blank lines part the entries; values can stand above or below the compound they belong to.

Key:
Experiment in all cases: radiometric filter-binding kinase assay
PIM2 (human) = PIM2 (human) (UniProt Q9P1W9); conditions: ATP 5 µM
CHEK1 (human) = CHEK1 (human) (UniProt O14757); conditions: ATP 20 µM
[1] = tested on: RPS6KB1 (human), P23443 [T412E]; conditions: ATP 20 µM
SRC (chicken) = conditions: ATP 50 µM, accession and sequence are those of the human protein
PHKG1 or PHKG2 (human) = PHKG1 or PHKG2 (human) (UniProt P15735+Q16816); conditions: ATP 50 µM
LCK (mouse) = conditions: ATP 50 µM, accession and sequence are those of the human protein
CSK (human) = CSK (human) (UniProt P41240); conditions: ATP 20 µM
STK3 (human) = STK3 (human) (UniProt Q13188); conditions: ATP 20 µM
HIPK2 (human) = HIPK2 (human) (UniProt Q9H2X6); conditions: ATP 5 µM
Chain of HIPK2 (human) (Q9H2X6 whole entry, looked up): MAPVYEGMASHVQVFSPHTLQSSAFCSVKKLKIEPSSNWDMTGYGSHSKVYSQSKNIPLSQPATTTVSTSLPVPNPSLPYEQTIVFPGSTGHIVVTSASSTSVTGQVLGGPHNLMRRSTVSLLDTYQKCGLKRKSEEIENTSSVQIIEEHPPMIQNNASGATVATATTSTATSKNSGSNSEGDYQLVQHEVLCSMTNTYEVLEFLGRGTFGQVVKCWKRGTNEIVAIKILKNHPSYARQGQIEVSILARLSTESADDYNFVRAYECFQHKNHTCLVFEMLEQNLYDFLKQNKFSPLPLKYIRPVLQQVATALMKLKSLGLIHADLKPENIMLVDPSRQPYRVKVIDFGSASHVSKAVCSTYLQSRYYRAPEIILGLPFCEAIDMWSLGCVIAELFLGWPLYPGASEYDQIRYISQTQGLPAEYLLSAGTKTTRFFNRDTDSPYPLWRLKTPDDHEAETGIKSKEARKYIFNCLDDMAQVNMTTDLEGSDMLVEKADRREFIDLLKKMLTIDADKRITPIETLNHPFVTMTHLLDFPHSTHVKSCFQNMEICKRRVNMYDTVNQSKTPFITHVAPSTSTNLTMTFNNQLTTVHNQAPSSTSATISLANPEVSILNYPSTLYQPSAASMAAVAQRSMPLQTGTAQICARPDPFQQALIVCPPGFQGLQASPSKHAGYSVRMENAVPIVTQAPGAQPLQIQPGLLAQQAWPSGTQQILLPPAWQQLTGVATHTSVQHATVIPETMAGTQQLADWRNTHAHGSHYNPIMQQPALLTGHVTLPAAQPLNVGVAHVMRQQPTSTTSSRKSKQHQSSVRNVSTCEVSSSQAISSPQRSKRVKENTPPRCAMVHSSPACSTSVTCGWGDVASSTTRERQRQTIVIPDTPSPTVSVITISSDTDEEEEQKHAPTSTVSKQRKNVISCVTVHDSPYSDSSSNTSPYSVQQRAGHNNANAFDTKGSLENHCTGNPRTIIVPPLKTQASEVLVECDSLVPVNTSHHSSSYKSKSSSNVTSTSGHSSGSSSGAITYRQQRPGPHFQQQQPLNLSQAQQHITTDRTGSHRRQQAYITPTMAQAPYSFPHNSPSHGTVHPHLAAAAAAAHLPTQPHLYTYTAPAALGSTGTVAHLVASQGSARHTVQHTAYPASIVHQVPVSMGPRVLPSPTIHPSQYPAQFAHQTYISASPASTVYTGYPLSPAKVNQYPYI

[2] = biological target: PRKACA or PRKACB or PRKACG (human) (UniProt P22694+P22612+P17612); conditions: ATP 20 µM
Chain of PRKACA or PRKACB or PRKACG (human) (P22612 whole entry, looked up, other chains not shown): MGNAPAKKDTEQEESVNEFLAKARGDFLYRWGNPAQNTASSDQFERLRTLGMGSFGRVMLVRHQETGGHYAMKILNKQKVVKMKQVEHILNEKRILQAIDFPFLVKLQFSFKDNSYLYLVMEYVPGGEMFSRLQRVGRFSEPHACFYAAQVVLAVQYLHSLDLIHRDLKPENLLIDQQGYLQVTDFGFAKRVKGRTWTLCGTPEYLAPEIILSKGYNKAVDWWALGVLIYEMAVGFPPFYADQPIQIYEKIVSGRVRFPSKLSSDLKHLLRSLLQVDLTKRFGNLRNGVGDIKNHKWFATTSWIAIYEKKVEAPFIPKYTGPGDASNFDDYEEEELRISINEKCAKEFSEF

PRKAA1 or PRKAA2 (rat) = conditions: accession and sequence are those of the human protein
MAPK3 (human) = MAPK3 (human) (UniProt P27361); conditions: ATP 5 µM
Chain of MAPK3 (human) (P27361 whole entry, looked up): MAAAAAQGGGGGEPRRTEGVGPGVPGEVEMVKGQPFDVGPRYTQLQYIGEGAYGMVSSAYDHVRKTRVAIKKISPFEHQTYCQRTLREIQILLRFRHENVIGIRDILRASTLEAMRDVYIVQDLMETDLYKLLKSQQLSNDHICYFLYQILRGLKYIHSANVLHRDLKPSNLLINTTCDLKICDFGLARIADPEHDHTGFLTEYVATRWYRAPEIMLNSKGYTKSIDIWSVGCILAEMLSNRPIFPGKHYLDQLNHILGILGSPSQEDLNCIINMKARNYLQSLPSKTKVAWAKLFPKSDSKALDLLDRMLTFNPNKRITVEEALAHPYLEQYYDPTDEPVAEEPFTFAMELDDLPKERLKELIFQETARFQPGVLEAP

PAK6 (human) = PAK6 (human) (UniProt Q9NQU5); conditions: ATP 20 µM
PIM3 (human) = PIM3 (human) (UniProt Q86V86); conditions: ATP 20 µM
MAPK12 (human) = MAPK12 (human) (UniProt P53778); conditions: ATP 5 µM
MAPKAPK5 (human) = MAPKAPK5 (human) (UniProt Q8IW41); conditions: ATP 20 µM
Chain of MAPKAPK5 (human) (Q8IW41 whole entry, looked up): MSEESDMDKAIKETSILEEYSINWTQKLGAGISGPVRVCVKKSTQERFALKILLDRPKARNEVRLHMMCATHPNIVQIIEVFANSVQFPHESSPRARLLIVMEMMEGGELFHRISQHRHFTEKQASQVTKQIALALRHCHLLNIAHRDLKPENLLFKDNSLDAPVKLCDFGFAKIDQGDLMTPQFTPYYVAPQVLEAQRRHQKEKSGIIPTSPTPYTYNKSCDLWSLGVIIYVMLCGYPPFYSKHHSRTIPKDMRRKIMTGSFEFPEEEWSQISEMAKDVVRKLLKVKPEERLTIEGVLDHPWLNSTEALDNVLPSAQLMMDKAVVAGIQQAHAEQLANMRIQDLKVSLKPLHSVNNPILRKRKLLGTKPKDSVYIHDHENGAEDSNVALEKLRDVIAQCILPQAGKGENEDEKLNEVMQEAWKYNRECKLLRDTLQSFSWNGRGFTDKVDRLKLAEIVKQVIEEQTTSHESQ

[3] = tested on: AKT1 (human), P31749 [S473D]; conditions: ATP 5 µM
PIM1 (human) = PIM1 (human) (UniProt P11309); conditions: ATP 20 µM
MAPK11 (human) = MAPK11 (human) (UniProt Q15759); conditions: ATP 20 µM
RPS6KA1 KD1 KD2 (human) = RPS6KA1 KD1 KD2 (human) (UniProt Q15418); conditions: ATP 50 µM
BRSK2 (human) = BRSK2 (human) (UniProt Q8IWQ3); conditions: ATP 50 µM
Chain of BRSK2 (human) (Q8IWQ3 whole entry, looked up): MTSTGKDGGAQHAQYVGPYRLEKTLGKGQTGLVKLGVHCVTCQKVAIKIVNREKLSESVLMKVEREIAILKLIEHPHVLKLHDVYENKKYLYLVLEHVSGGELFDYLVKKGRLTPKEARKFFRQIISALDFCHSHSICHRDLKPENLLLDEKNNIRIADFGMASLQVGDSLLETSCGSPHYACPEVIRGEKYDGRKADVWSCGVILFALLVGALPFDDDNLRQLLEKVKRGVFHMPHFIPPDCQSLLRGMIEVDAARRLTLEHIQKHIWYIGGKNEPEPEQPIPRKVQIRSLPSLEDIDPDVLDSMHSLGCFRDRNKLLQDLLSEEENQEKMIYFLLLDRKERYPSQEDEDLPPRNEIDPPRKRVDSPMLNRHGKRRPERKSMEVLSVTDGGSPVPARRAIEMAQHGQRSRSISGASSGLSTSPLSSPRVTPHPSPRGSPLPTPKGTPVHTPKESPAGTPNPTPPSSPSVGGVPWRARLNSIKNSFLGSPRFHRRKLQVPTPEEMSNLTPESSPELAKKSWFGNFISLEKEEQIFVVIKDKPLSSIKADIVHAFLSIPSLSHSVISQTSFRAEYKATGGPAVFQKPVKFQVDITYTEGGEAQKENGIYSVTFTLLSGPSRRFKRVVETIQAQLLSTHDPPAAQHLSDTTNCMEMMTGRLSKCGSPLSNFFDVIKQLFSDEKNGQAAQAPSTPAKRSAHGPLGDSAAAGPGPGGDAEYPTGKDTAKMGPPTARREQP

RPS6KA3 KD1 KD2 (human) = RPS6KA3 KD1 KD2 (human) (UniProt P51812); conditions: ATP 50 µM
CHEK2 (human) = CHEK2 (human) (UniProt O96017); conditions: ATP 20 µM
[4] = tested on: SGK1 (human), O00141 [S422D]; conditions: ATP 20 µM
CAMKK2 (human) = CAMKK2 (human) (UniProt Q96RR4); conditions: ATP 20 µM
MAP2K1 (human) = MAP2K1 (human) (UniProt Q02750); conditions: ATP 5 µM
SRPK1 (human) = SRPK1 (human) (UniProt Q96SB4); conditions: ATP 50 µM
Chain of SRPK1 (human) (Q96SB4 whole entry, looked up): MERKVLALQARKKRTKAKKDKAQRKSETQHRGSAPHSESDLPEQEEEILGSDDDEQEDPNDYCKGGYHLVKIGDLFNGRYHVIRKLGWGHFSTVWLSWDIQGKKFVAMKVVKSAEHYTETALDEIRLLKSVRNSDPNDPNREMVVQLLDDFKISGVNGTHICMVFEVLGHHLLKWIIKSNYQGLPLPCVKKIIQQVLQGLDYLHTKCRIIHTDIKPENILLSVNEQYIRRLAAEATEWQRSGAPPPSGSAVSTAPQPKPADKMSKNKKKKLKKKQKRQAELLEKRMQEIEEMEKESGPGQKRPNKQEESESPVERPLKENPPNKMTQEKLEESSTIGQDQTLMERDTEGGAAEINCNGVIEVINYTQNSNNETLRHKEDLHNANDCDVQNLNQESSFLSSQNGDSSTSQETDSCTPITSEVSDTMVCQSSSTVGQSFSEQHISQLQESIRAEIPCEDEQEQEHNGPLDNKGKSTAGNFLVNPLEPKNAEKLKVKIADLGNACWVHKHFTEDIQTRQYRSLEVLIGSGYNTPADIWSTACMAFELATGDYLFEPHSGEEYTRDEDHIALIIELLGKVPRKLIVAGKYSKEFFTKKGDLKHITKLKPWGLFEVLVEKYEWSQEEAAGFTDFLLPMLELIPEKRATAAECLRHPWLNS

CDK2 CCNA2 (human) = CDK2 CCNA2 (human) (UniProt P24941+P20248); conditions: ATP 20 µM

Chain of CHEK1 (human) (O14757 whole entry, looked up): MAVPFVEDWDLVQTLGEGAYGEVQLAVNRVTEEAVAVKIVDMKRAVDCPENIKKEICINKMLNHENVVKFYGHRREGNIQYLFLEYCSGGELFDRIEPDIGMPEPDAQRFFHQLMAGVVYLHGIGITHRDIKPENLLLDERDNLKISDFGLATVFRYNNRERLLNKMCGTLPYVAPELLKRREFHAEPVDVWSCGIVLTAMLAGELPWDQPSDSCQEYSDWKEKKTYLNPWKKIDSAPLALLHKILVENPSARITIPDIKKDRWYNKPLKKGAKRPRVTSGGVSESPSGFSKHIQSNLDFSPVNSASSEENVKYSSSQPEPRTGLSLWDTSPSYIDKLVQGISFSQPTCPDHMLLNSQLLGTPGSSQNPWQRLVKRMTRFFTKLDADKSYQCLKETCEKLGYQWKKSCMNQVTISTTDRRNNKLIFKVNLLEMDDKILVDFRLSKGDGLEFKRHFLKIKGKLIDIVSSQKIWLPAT
Chain of PIM2 (human) (Q9P1W9 whole entry, looked up): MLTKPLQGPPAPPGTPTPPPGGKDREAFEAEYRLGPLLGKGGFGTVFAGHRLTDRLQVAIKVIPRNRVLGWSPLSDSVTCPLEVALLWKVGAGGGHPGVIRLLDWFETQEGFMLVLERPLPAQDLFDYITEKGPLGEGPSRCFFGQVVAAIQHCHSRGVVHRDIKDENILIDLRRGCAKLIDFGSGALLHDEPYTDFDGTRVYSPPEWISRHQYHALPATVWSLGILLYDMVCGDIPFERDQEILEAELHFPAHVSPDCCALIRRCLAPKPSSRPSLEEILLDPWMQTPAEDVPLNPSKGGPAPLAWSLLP

residual activity (PIM2 (human); compound 0.01 µM): 73%
residual activity (CHEK1 (human); compound 0.01 µM): 12%
residual activity ([1]; compound 0.01 µM): 96%
residual activity (SRC (chicken); compound 0.01 µM): 76%
residual activity (PHKG1 or PHKG2 (human); compound 0.01 µM): 5%
residual activity (LCK (mouse); compound 0.01 µM): 50%
residual activity (CSK (human); compound 0.01 µM): 80%
residual activity (STK3 (human); compound 0.01 µM): 2%
residual activity (HIPK2 (human); compound 0.01 µM): 109%
residual activity ([2]; compound 0.01 µM): 63%
residual activity (PRKAA1 or PRKAA2 (rat); compound 0.01 µM): 9%
residual activity (MAPK3 (human); compound 0.01 µM): 112%
residual activity (PAK6 (human); compound 0.01 µM): 35%
residual activity (PIM3 (human); compound 0.01 µM): 8%
residual activity (MAPK12 (human); compound 0.01 µM): 104%
residual activity (MAPKAPK5 (human); compound 0.01 µM): 83%
residual activity ([3]; compound 0.01 µM): 79%
residual activity (PIM1 (human); compound 0.01 µM): 52%
residual activity (MAPK11 (human); compound 0.01 µM): 105%
residual activity (RPS6KA1 KD1 KD2 (human); compound 0.01 µM): 25%
residual activity (BRSK2 (human); compound 0.01 µM): 27%
residual activity (RPS6KA3 KD1 KD2 (human); compound 0.01 µM): 29%
residual activity (CHEK2 (human); compound 0.01 µM): 96%
residual activity ([4]; compound 0.01 µM): 83%
residual activity (CAMKK2 (human); compound 0.01 µM): 21%
residual activity (MAP2K1 (human); compound 0.01 µM): 75%
SMILES: CN[C@@H]1C[C@@H]2O[C@@](C)([C@@H]1OC)n1c3ccccc3c3c4c(c5c6ccccc6n2c5c31)C(=O)N[C@@H]4O

residual activity (PIM2 (human); compound 1.0 µM): 58%
residual activity (CHEK1 (human); compound 1.0 µM): 63%
residual activity ([1]; compound 1.0 µM): 85%
residual activity (SRC (chicken); compound 1.0 µM): 89%
residual activity (PHKG1 or PHKG2 (human); compound 1.0 µM): 31%
residual activity (LCK (mouse); compound 1.0 µM): 68%
residual activity (CSK (human); compound 1.0 µM): 65%
residual activity (STK3 (human); compound 1.0 µM): 31%
residual activity (HIPK2 (human); compound 1.0 µM): 35%
residual activity ([2]; compound 1.0 µM): 80%
residual activity (PRKAA1 or PRKAA2 (rat); compound 1.0 µM): 44%
residual activity (MAPK3 (human); compound 1.0 µM): 89%
residual activity (SRPK1 (human); compound 1.0 µM): 84%
residual activity (PAK6 (human); compound 1.0 µM): 72%
residual activity (PIM3 (human); compound 1.0 µM): 17%
residual activity (MAPK12 (human); compound 1.0 µM): 86%
residual activity (MAPKAPK5 (human); compound 1.0 µM): 58%
residual activity ([3]; compound 1.0 µM): 97%
residual activity (PIM1 (human); compound 1.0 µM): 39%
residual activity (MAPK11 (human); compound 1.0 µM): 106%
residual activity (CDK2 CCNA2 (human); compound 1.0 µM): 50%
residual activity (RPS6KA1 KD1 KD2 (human); compound 1.0 µM): 55%
residual activity (BRSK2 (human); compound 1.0 µM): 44%
residual activity (RPS6KA3 KD1 KD2 (human); compound 1.0 µM): 70%
residual activity (CHEK2 (human); compound 1.0 µM): 44%
residual activity ([4]; compound 1.0 µM): 28%
residual activity (CAMKK2 (human); compound 1.0 µM): 41%
residual activity (MAP2K1 (human); compound 1.0 µM): 58%
SMILES: O=C1c2ccccc2-c2n[nH]c3cccc1c23

SMILES: O=S(=O)(NCCNC/C=C/c1ccc(Br)cc1)c1cccc2cnccc12
residual activity (PIM2 (human); compound 1.0 µM): 91%
residual activity (CHEK1 (human); compound 1.0 µM): 71%
residual activity ([1]; compound 1.0 µM): 11%
residual activity (SRC (chicken); compound 1.0 µM): 100%
residual activity (PHKG1 or PHKG2 (human); compound 1.0 µM): 76%
residual activity (CSK (human); compound 1.0 µM): 89%
residual activity (STK3 (human); compound 1.0 µM): 81%
residual activity (HIPK2 (human); compound 1.0 µM): 101%
residual activity ([2]; compound 1.0 µM): 15%
residual activity (PRKAA1 or PRKAA2 (rat); compound 1.0 µM): 73%
residual activity (MAPK3 (human); compound 1.0 µM): 90%
residual activity (SRPK1 (human); compound 1.0 µM): 93%
residual activity (PAK6 (human); compound 1.0 µM): 76%
residual activity (PIM3 (human); compound 1.0 µM): 91%
residual activity (MAPKAPK5 (human); compound 1.0 µM): 89%
residual activity ([3]; compound 1.0 µM): 14%
residual activity (PIM1 (human); compound 1.0 µM): 90%
residual activity (MAPK11 (human); compound 1.0 µM): 91%
residual activity (CDK2 CCNA2 (human); compound 1.0 µM): 75%
residual activity (RPS6KA1 KD1 KD2 (human); compound 1.0 µM): 36%
residual activity (BRSK2 (human); compound 1.0 µM): 82%
residual activity (RPS6KA3 KD1 KD2 (human); compound 1.0 µM): 55%
residual activity (CHEK2 (human); compound 1.0 µM): 69%
residual activity ([4]; compound 1.0 µM): 62%
residual activity (CAMKK2 (human); compound 1.0 µM): 102%

residual activity (PIM2 (human); compound 10.0 µM): 101%
residual activity (CHEK1 (human); compound 10.0 µM): 83%
residual activity ([1]; compound 10.0 µM): 93%
residual activity (SRC (chicken); compound 10.0 µM): 84%
residual activity (PHKG1 or PHKG2 (human); compound 10.0 µM): 94%
residual activity (LCK (mouse); compound 10.0 µM): 84%
residual activity (STK3 (human); compound 10.0 µM): 96%
residual activity (HIPK2 (human); compound 10.0 µM): 97%
residual activity ([2]; compound 10.0 µM): 93%
residual activity (MAPK3 (human); compound 10.0 µM): 72%
residual activity (SRPK1 (human); compound 10.0 µM): 102%
residual activity (PIM3 (human); compound 10.0 µM): 63%
residual activity (MAPK12 (human); compound 10.0 µM): 90%
residual activity (MAPKAPK5 (human); compound 10.0 µM): 92%
residual activity ([3]; compound 10.0 µM): 76%
residual activity (PIM1 (human); compound 10.0 µM): 87%
residual activity (MAPK11 (human); compound 10.0 µM): 91%
residual activity (CDK2 CCNA2 (human); compound 10.0 µM): 86%
residual activity (RPS6KA1 KD1 KD2 (human); compound 10.0 µM): 83%
residual activity (RPS6KA3 KD1 KD2 (human); compound 10.0 µM): 81%
residual activity (CHEK2 (human); compound 10.0 µM): 98%
residual activity ([4]; compound 10.0 µM): 72%
residual activity (CAMKK2 (human); compound 10.0 µM): 92%
SMILES: N#CC(=C(\N)Sc1ccccc1N)/C(C#N)=C(/N)Sc1ccccc1N
